These results are taken from patent US11180510B2, “Xanthine derivatives and uses thereof as inhibitors of bromodomains of BET proteins” (Centre national de la recherche scientifique, priority 2017, dated 2021).

SMILES strings stand for the structures.

For one assay, the target named is T1, Brd2(BD1) (Homo sapiens, UniProt P25440).
T1 construct: GST tagged bromodomain proteins were purchased from BPS Bioscience; purchased BPS Bioscience
Briefly: HTRF BET selectivity profile, Brd2(BD1). Format: binding.

For the next assay, the target named is T2, Brd3(BD2) (Homo sapiens, UniProt Q15059).
T2 construct: GST tagged bromodomain proteins were purchased from BPS Bioscience; purchased BPS Bioscience
T2 sequence (Q15059 306-415 limits assumed): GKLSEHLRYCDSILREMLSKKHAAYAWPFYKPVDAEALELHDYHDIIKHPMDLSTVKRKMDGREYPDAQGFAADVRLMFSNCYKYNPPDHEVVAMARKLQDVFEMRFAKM
Briefly: HTRF BET selectivity profile, Brd3(BD2). Format: binding. The procedure, abridged: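 HTRF peptide-displacement assay with GST-tagged bromodomains and histone peptide, 0.5% final DMSO, incubated 3 h, 6 h or overnight at room temperature or 4 °C depending on bromodomain. 665/620 nm ratio read; inhibition scaled between DMSO and no-peptide controls, IC50 in triplicate.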
Background: TR-FRET usually uses a lanthanide donor and a delayed reading to cut background.

The next assay addresses T3, Brd2(BD2) (Homo sapiens, UniProt P25440).
T3 construct: GST tagged bromodomain proteins were purchased from BPS Bioscience; purchased BPS Bioscience
Briefly: HTRF BET selectivity profile, Brd2(BD2). Type of assay: binding. Particulars: read-out: Brd2(BD2) IC50.

For a further assay, the system named is Jurkat cells. Description: Cell Titer-Glo cell viability assay, Jurkat. Format: cell-based. Particulars: Homo sapiens, 72 h, mean of three experiments, NA = IC50 > maximal concentration used. The method, boiled down:
(§1)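 Jurkat was grown in RPMI-1640 and Molm14 in MEMα, both with 10% FBS. Viability was read by CellTiter-Glo luminescence, and EC50 was obtained by non-linear regression of dose-response curves.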
In general terms: Cellular ATP, detected with luciferase, serves as a proxy for viable cell number.

Another assay relates to Molm14 cells. Briefly: Cell Titer-Glo cell viability assay, Molm14. Particulars: Homo sapiens, MOLM-14, 72 h, mean of three experiments, NA = IC50 > maximal concentration used. Format: cell-based. The procedure, abridged:
as §1

The target in assay [1] is T4, BRD4(BD1) (Homo sapiens, UniProt O60885). Briefly: BROMOscan assays. Format: binding.
Assay [2] concerns the target T4, BRD4(BD1). Briefly: HTRF assay, BRD4(BD1)/histone peptide interaction. Further details: made in house. Type of assay: binding.
A further assay has as its target Brd3(BD1) (Homo sapiens, UniProt Q15059). Description: Thermal shift assay (BromoMELT), Brd3 (BD1). Particulars: compound at 25 μM, cut-off +/−3.5° C. Type of assay: binding. Further details: containing the 61 GST- or His-tagged-bromodomains; purchased Reaction Biology. The procedure: FIG. 3. Thermal Shift Assay (TSA) of 43c. The evaluation was performed on 61 bromodomains. A cut-off at +/−3.5° C. was set.
TSA “Bromoscan” assays (Reaction Biology) were performed in 384 well RT-PCR plate (BioRad) with a total working volume of 15 μL. The “BromoMelT™, containing the 61 GST- or His-tagged-bromodomains, SYPRO® Orange and a mix compounds as control, was purchased from Reaction Biology. For each point, 3 μL of protein (1×) and 12 μL master mix (buffer+SYPRO® Orange+compound at 25 μM or control mix compounds or DMSO (0.5%)) were mixed in plate. The plate was placed in a CFX384 RTQPC (BioRad), and heated 10 seconds at 25° C., then the temperature was increased from 25° C. to 90° C., by increment of 0.5° C. every 30 seconds. The fluorescence was recorded using FRET filters.

T1 sequence (P25440 74-180 limits assumed): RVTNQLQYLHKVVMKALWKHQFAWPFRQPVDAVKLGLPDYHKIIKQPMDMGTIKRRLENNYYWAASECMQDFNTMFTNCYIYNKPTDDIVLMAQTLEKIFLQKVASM
Chain of Brd3(BD1) (Q15059 34-140 limits assumed): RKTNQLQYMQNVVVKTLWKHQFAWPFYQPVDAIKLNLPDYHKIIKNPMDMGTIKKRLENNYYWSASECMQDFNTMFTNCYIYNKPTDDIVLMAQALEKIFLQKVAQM
T3 sequence (P25440 344-453 limits assumed): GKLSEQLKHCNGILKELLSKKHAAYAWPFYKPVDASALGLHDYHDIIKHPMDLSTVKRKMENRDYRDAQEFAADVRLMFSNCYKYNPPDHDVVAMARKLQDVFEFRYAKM

As for `CCn1cnc2c1c(=O)[nH]c(=O)n2Cc1ccc(CNS(=O)(=O)c2ccc(OC3CCOCC3)c(F)c2)cc1` [Compound 43c], the IC50 at Brd2(BD1) (read-out: Brd2(BD1) IC50) worked out at 183 nM; against Brd3(BD2), 2170 nM; on Brd2(BD2) it was 1220 nM; with Jurkat cells, 17600 nM; in the assay on Molm14 cells, 6100 nM; on BRD4(BD1) [2] (HTRF, mean of three experiments, NA = IC50 > 50 μM, read-out: Brd4(8D1) IC50), 74 nM. The “Ratio 2-1 vs 2-2” value at Brd2(BD1) (selectivity Brd2(BD1) vs Brd2(BD2), HTRF IC50) was 7. At BRD4(BD1) [1], this compound registered a Kd of 32 nM. In addition, the “selectivity ratio to the first bromodomain, BROMOscan” value on BRD4(BD1) [1] is “up to 313 fold”. For the same compound, the “Ratio 4-1 vs 4-2” value at BRD4(BD1) [2] (selectivity Brd4(BD1) vs Brd4(BD2), HTRF IC50) stood at 31. In addition, the ΔTm at 25 µM at Brd3(BD1) amounted to 4.5 °C.

What is called IC50 is the concentration that inhibits the measured activity by half. Broadly, the Kd is the free concentration of one partner at which half of the binding sites on the other are occupied at equilibrium, for simple one-to-one binding. A high value points to lower affinity. Broadly, the ΔTm is the change in melting temperature against a reference sample.
